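Tested at 5 concentrations; 48 h exposure; 96-well plates; endpoints linearly interpolated, else capped at highest concentration. GI50 is the concentration that inhibits growth by half.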 The source made the active and inactive calls. No stated cut-off is given here; in the data, active = GI50 up to about 1.1 µM and inactive = higher.
Columns and labels:
Test in all cases: inhibition of tumour cell growth, NCI panel, 48 h
UO-31 = test system: UO-31
HT-29 = test system: HT-29
OVCAR-4 = test system: OVCAR-4
SN12C = test system: SN12C
HOP-62 = test system: HOP-62
NCI-H226 = test system: NCI-H226
SNB-19 = test system: SNB-19
Malme-3M = test system: Malme-3M
COLO 205 = test system: COLO 205
PC-3 = test system: PC-3
K562 = test system: K562
NCI-H23 = test system: NCI-H23
RPMI-8226 = test system: RPMI-8226
SK-MEL-28 = test system: SK-MEL-28
786-0 = test system: 786-0
MDA-MB-435 = test system: MDA-MB-435
RXF 393 = test system: RXF 393
SR = test system: SR
M14 = test system: M14
HCT-15 = test system: HCT-15

Structure (SMILES): Nc1nc(SCC(=O)O)nc(O)c1N
- GI50 (UO-31): > 100 µM (inactive)
- GI50 (HT-29): > 100 µM (inactive)
- GI50 (OVCAR-4): 50.9 µM (inactive)
- GI50 (SN12C): 13.3 µM (inactive)
- GI50 (HOP-62): > 100 µM (inactive)
- GI50 (NCI-H226): > 100 µM (inactive)
- GI50 (SNB-19): > 100 µM (inactive)
- GI50 (Malme-3M): > 100 µM (inactive)
- GI50 (COLO 205): > 100 µM (inactive)
- GI50 (PC-3): > 100 µM (inactive)
- GI50 (K562): 13.6 µM (inactive)
- GI50 (NCI-H23): > 100 µM (inactive)
- GI50 (RPMI-8226): 32.7 µM (inactive)
- GI50 (SK-MEL-28): > 100 µM (inactive)
- GI50 (786-0): 41.6 µM (inactive)
- GI50 (MDA-MB-435): 32.3 µM (inactive)
- GI50 (RXF 393): > 100 µM (inactive)
- GI50 (SR): 22.6 µM (inactive)
- GI50 (M14): > 100 µM (inactive)
- GI50 (HCT-15): > 100 µM

Structure (SMILES): N/C(=N\Nc1cccc(Cl)c1)c1cccnc1
- GI50 (UO-31): 7.87 µM (inactive)
- GI50 (HT-29): 27.2 µM (inactive)
- GI50 (OVCAR-4): 13.7 µM (inactive)
- GI50 (SN12C): 60 µM (inactive)
- GI50 (HOP-62): > 100 µM (inactive)
- GI50 (NCI-H226): 33.9 µM (inactive)
- GI50 (SNB-19): 58.9 µM (inactive)
- GI50 (Malme-3M): 97.9 µM (inactive)
- GI50 (COLO 205): 29 µM (inactive)
- GI50 (PC-3): 31 µM (inactive)
- GI50 (K562): 4.04 µM (inactive)
- GI50 (NCI-H23): 43.5 µM (inactive)
- GI50 (RPMI-8226): 14.7 µM (inactive)
- GI50 (SK-MEL-28): 72.8 µM (inactive)
- GI50 (786-0): 38.2 µM (inactive)
- GI50 (MDA-MB-435): 2.72 µM (inactive)
- GI50 (RXF 393): 23.1 µM (inactive)
- GI50 (SR): 26 µM (inactive)
- GI50 (M14): 17.1 µM (inactive)
- GI50 (HCT-15): 39.6 µM

Structure (SMILES): Cc1ccc(SCN2CCCCC2)cc1.O=C(Cl)c1ccc([N+](=O)[O-])cc1
- GI50 (UO-31): 15.2 µM (inactive)
- GI50 (HT-29): 13.2 µM (inactive)
- GI50 (OVCAR-4): 12.4 µM (inactive)
- GI50 (SN12C): 4.31 µM (inactive)
- GI50 (HOP-62): 16.2 µM (inactive)
- GI50 (NCI-H226): 16.6 µM (inactive)
- GI50 (SNB-19): 19.2 µM (inactive)
- GI50 (Malme-3M): 13.1 µM (inactive)
- GI50 (COLO 205): 4.86 µM (inactive)
- GI50 (PC-3): 12.2 µM (inactive)
- GI50 (K562): 13.8 µM (inactive)
- GI50 (NCI-H23): 8.22 µM (inactive)
- GI50 (RPMI-8226): 5.78 µM (inactive)
- GI50 (SK-MEL-28): 13.4 µM (inactive)
- GI50 (786-0): 15.1 µM (inactive)
- GI50 (MDA-MB-435): 10.1 µM (inactive)
- GI50 (RXF 393): 6.15 µM (inactive)
- GI50 (SR): 4.24 µM (inactive)
- GI50 (M14): 17.8 µM (inactive)
- GI50 (HCT-15): 9.77 µM

Structure (SMILES): COc1ccc(Cc2nc3cc(Cl)ccc3o2)cc1
- GI50 (UO-31): 33.3 µM (inactive)
- GI50 (HT-29): 30.1 µM (inactive)
- GI50 (OVCAR-4): 18.8 µM (inactive)
- GI50 (SN12C): 54.5 µM (inactive)
- GI50 (HOP-62): > 100 µM (inactive)
- GI50 (NCI-H226): 21.5 µM (inactive)
- GI50 (SNB-19): 42.2 µM (inactive)
- GI50 (Malme-3M): 26.7 µM (inactive)
- GI50 (COLO 205): 28.4 µM (inactive)
- GI50 (PC-3): 32.3 µM (inactive)
- GI50 (K562): 34.4 µM (inactive)
- GI50 (NCI-H23): 29.2 µM (inactive)
- GI50 (RPMI-8226): 21.3 µM (inactive)
- GI50 (SK-MEL-28): 37.2 µM (inactive)
- GI50 (786-0): 33.3 µM (inactive)
- GI50 (MDA-MB-435): 22.1 µM (inactive)
- GI50 (RXF 393): 22.6 µM (inactive)
- GI50 (SR): 23.7 µM (inactive)
- GI50 (M14): 32.2 µM (inactive)
- GI50 (HCT-15): 26.9 µM

Structure (SMILES): CO[C@@H]1C[C@H](OC(N)=O)[C@@H]2C=C[C@@H]3/C=C(C)/C=C/[C@@H](C)[C@H](/C(C)=C/[C@@H](C)NC(C)=O)OC(=O)/C=C/C=C(C)\C=C\[C@]3(C)[C@@H]2C1 [SUPERSTOLIDE B]
- GI50 (UO-31): < 0.005 µM (active)
- GI50 (HT-29): < 0.005 µM (active)
- GI50 (OVCAR-4): < 0.005 µM (active)
- GI50 (SN12C): < 0.005 µM (active)
- GI50 (HOP-62): < 0.005 µM (active)
- GI50 (NCI-H226): < 0.005 µM (active)
- GI50 (SNB-19): 0.0306 µM (active)
- GI50 (Malme-3M): < 0.005 µM (active)
- GI50 (COLO 205): < 0.005 µM (active)
- GI50 (PC-3): < 0.005 µM (active)
- GI50 (K562): < 0.005 µM (active)
- GI50 (NCI-H23): < 0.005 µM (active)
- GI50 (RPMI-8226): 0.0158 µM (active)
- GI50 (SK-MEL-28): < 0.005 µM (active)
- GI50 (786-0): < 0.005 µM (active)
- GI50 (MDA-MB-435): < 0.005 µM (active)
- GI50 (RXF 393): < 0.005 µM (active)
- GI50 (SR): < 0.005 µM (active)
- GI50 (M14): < 0.005 µM (active)
- GI50 (HCT-15): 0.00518 µM

Structure (SMILES): O=C1/C(=C/c2n[nH]cc2-c2ccc(Cl)cc2)C(=O)N(c2ccccc2)C1c1ccccc1 (stereo not given)
- GI50 (UO-31): 18.9 µM (inactive)
- GI50 (HT-29): 12.3 µM (inactive)
- GI50 (OVCAR-4): 25.6 µM (inactive)
- GI50 (SN12C): 29.1 µM (inactive)
- GI50 (HOP-62): 17.4 µM (inactive)
- GI50 (NCI-H226): 24.2 µM (inactive)
- GI50 (SNB-19): 27.4 µM (inactive)
- GI50 (Malme-3M): 22.9 µM (inactive)
- GI50 (COLO 205): 14.2 µM (inactive)
- GI50 (PC-3): 6.92 µM (inactive)
- GI50 (K562): 8.41 µM (inactive)
- GI50 (NCI-H23): 13.3 µM (inactive)
- GI50 (RPMI-8226): 13.7 µM (inactive)
- GI50 (SK-MEL-28): 17.7 µM (inactive)
- GI50 (786-0): 17.2 µM (inactive)
- GI50 (MDA-MB-435): 14.9 µM (inactive)
- GI50 (RXF 393): 14.3 µM (inactive)
- GI50 (SR): 11.8 µM (inactive)
- GI50 (M14): 12.9 µM (inactive)
- GI50 (HCT-15): 15 µM

From ChEMBL document CHEMBL1201862, “PubChem BioAssay data set” (2004)
